Data: PubChem BioAssay (NCI)
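At the GI50, growth is halved. The concentration for full growth arrest is given as TGI.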

Key:
Assay in all cases: NCI-60 cell line screen, 384-well format
MALME-3M melanoma = tested on: MALME-3M melanoma
HOP-92 NSCLC = tested on: HOP-92 NSCLC
A498 renal = tested on: A498 renal
NCI-H322M lung = tested on: NCI-H322M lung
NCI-H23 lung = tested on: NCI-H23 lung
A549 NSCLC = tested on: A549 NSCLC
SF-268 CNS = tested on: SF-268 CNS
NCI-H460 NSCLC = tested on: NCI-H460 NSCLC
EKVX NSCLC = tested on: EKVX NSCLC
MOLT-4 leukemia = tested on: MOLT-4 leukemia
CAKI-1 renal = tested on: CAKI-1 renal
SK-MEL-28 melanoma = tested on: SK-MEL-28 melanoma
DU-145 prostate = tested on: DU-145 prostate
MCF7 breast = tested on: MCF7 breast
MDA-MB-231 breast = tested on: MDA-MB-231 breast
NCI/ADR-RES ovarian = tested on: NCI/ADR-RES ovarian
UACC-257 melanoma = tested on: UACC-257 melanoma
SF-295 CNS = tested on: SF-295 CNS
RXF 393 renal = tested on: RXF 393 renal
RPMI-8226 leukemia = tested on: RPMI-8226 leukemia
UACC-62 melanoma = tested on: UACC-62 melanoma
CCRF-CEM leukemia = tested on: CCRF-CEM leukemia
NCI-H226 lung = tested on: NCI-H226 lung
HS 578T breast = tested on: HS 578T breast
UO-31 renal = tested on: UO-31 renal
OVCAR-5 ovarian = tested on: OVCAR-5 ovarian
SK-OV-3 ovarian = tested on: SK-OV-3 ovarian
MDA-MB-435 melanoma = tested on: MDA-MB-435 melanoma
OVCAR-8 ovarian = tested on: OVCAR-8 ovarian
NCI-H522 lung = tested on: NCI-H522 lung
HCT-15 colon = tested on: HCT-15 colon
OVCAR-4 ovarian = tested on: OVCAR-4 ovarian
786-0 renal = tested on: 786-0 renal
COLO 205 colon = tested on: COLO 205 colon
SN12C renal = tested on: SN12C renal
LOX IMVI melanoma = tested on: LOX IMVI melanoma
HCT-116 colon = tested on: HCT-116 colon
M14 melanoma = tested on: M14 melanoma
SW-620 colon = tested on: SW-620 colon
K-562 leukemia = tested on: K-562 leukemia
BT-549 breast = tested on: BT-549 breast
HOP-62 NSCLC = tested on: HOP-62 NSCLC
SNB-19 CNS = tested on: SNB-19 CNS
KM12 colon = tested on: KM12 colon
SNB-75 CNS = tested on: SNB-75 CNS
ACHN renal = tested on: ACHN renal
HCC-2998 colon = tested on: HCC-2998 colon
MDA-MB-468 breast = tested on: MDA-MB-468 breast
OVCAR-3 ovarian = tested on: OVCAR-3 ovarian
HL-60(TB) leukemia = tested on: HL-60(TB) leukemia
U251 glioblastoma = tested on: U251 glioblastoma
HT29 colon = tested on: HT29 colon
IGROV1 ovarian = tested on: IGROV1 ovarian
SF-539 CNS = tested on: SF-539 CNS
SK-MEL-5 melanoma = tested on: SK-MEL-5 melanoma
TK-10 renal = tested on: TK-10 renal
PC-3 prostate = tested on: PC-3 prostate
T-47D breast = tested on: T-47D breast

C[C@H](c1ccc(F)cc1CCCC(=O)O)N(c1cc(F)ccc1F)S(=O)(=O)c1ccc(Cl)cc1
GI50 (MALME-3M melanoma): 23.7 µM
TGI (MALME-3M melanoma): > 100 µM
GI50 (HOP-92 NSCLC): 13.5 µM
TGI (HOP-92 NSCLC): 44.6 µM
GI50 (A498 renal): 20.2 µM
TGI (A498 renal): 69.3 µM
GI50 (NCI-H322M lung): 25.6 µM
TGI (NCI-H322M lung): > 100 µM
GI50 (NCI-H23 lung): 14.9 µM
TGI (NCI-H23 lung): 41.6 µM
GI50 (A549 NSCLC): 16.1 µM
TGI (A549 NSCLC): 46.2 µM
GI50 (SF-268 CNS): 14 µM
TGI (SF-268 CNS): 34.2 µM
GI50 (NCI-H460 NSCLC): 17.2 µM
TGI (NCI-H460 NSCLC): 33.8 µM
GI50 (EKVX NSCLC): 21.6 µM
TGI (EKVX NSCLC): 63.1 µM
GI50 (MOLT-4 leukemia): 11.7 µM
TGI (MOLT-4 leukemia): 24.2 µM
GI50 (CAKI-1 renal): 45.9 µM
TGI (CAKI-1 renal): > 100 µM
GI50 (SK-MEL-28 melanoma): 46 µM
TGI (SK-MEL-28 melanoma): > 100 µM
GI50 (DU-145 prostate): 28.2 µM
TGI (DU-145 prostate): > 100 µM
GI50 (MCF7 breast): 22.7 µM
TGI (MCF7 breast): 88.9 µM
GI50 (MDA-MB-231 breast): 34 µM
TGI (MDA-MB-231 breast): > 100 µM
GI50 (NCI/ADR-RES ovarian): 32 µM
TGI (NCI/ADR-RES ovarian): > 100 µM
GI50 (UACC-257 melanoma): 13.6 µM
TGI (UACC-257 melanoma): 68.4 µM
GI50 (SF-295 CNS): 17.7 µM
TGI (SF-295 CNS): 49.7 µM
GI50 (RXF 393 renal): 27.9 µM
TGI (RXF 393 renal): > 100 µM
GI50 (RPMI-8226 leukemia): 19.4 µM
TGI (RPMI-8226 leukemia): 36.6 µM
GI50 (UACC-62 melanoma): 16.9 µM
TGI (UACC-62 melanoma): 40.4 µM
GI50 (CCRF-CEM leukemia): 12.3 µM
TGI (CCRF-CEM leukemia): 26.5 µM
GI50 (NCI-H226 lung): 25.2 µM
TGI (NCI-H226 lung): 76 µM
GI50 (HS 578T breast): 12.2 µM
TGI (HS 578T breast): 33.3 µM
GI50 (UO-31 renal): 15.7 µM
TGI (UO-31 renal): 33 µM
GI50 (OVCAR-5 ovarian): 38.5 µM
TGI (OVCAR-5 ovarian): > 100 µM
GI50 (SK-OV-3 ovarian): 32.8 µM
TGI (SK-OV-3 ovarian): > 100 µM
GI50 (MDA-MB-435 melanoma): 24 µM
TGI (MDA-MB-435 melanoma): 53.8 µM
GI50 (OVCAR-8 ovarian): 32.1 µM
TGI (OVCAR-8 ovarian): > 100 µM
GI50 (NCI-H522 lung): 27.9 µM
TGI (NCI-H522 lung): 76.3 µM
GI50 (HCT-15 colon): 22.4 µM
TGI (HCT-15 colon): 95.5 µM
GI50 (OVCAR-4 ovarian): 26 µM
TGI (OVCAR-4 ovarian): > 100 µM
GI50 ([…]-0 renal): 28.9 µM
TGI (786-0 renal): > 100 µM
GI50 (COLO 205 colon): 30.1 µM
TGI (COLO 205 colon): > 100 µM
GI50 (SN12C renal): 28.8 µM
TGI (SN12C renal): > 100 µM
GI50 (LOX IMVI melanoma): 19 µM
TGI (LOX IMVI melanoma): 45.6 µM
GI50 (HCT-116 colon): 20.2 µM
TGI (HCT-116 colon): 43.8 µM
GI50 (M14 melanoma): 21.4 µM
TGI (M14 melanoma): 70.5 µM
GI50 (SW-620 colon): 32.8 µM
TGI (SW-620 colon): > 100 µM
GI50 (K-562 leukemia): 27.1 µM
TGI (K-562 leukemia): > 100 µM
GI50 (BT-549 breast): 18.8 µM
TGI (BT-549 breast): 42 µM
GI50 (HOP-62 NSCLC): 16.4 µM
TGI (HOP-62 NSCLC): 37.1 µM
GI50 (SNB-19 CNS): 35.9 µM
TGI (SNB-19 CNS): > 100 µM
GI50 (KM12 colon): 28.7 µM
TGI (KM12 colon): > 100 µM
GI50 (SNB-75 CNS): 26.2 µM
TGI (SNB-75 CNS): > 100 µM
GI50 (ACHN renal): 30.4 µM
TGI (ACHN renal): > 100 µM
GI50 (HCC-2998 colon): 1.41 µM
TGI (HCC-2998 colon): 16.3 µM
GI50 (MDA-MB-468 breast): 5.35 µM
TGI (MDA-MB-468 breast): 30.3 µM
GI50 (OVCAR-3 ovarian): 17.9 µM
TGI (OVCAR-3 ovarian): 38 µM
GI50 (HL-60(TB) leukemia): 19.1 µM
TGI (HL-60(TB) leukemia): 33.6 µM
GI50 (U251 glioblastoma): 19.9 µM
TGI (U251 glioblastoma): 49.4 µM
GI50 (HT29 colon): 31.3 µM
TGI (HT29 colon): > 100 µM
GI50 (IGROV1 ovarian): 30.5 µM
TGI (IGROV1 ovarian): > 100 µM
GI50 (SF-539 CNS): 23.8 µM
TGI (SF-539 CNS): 66.2 µM
GI50 (SK-MEL-5 melanoma): 13.1 µM
TGI (SK-MEL-5 melanoma): 29.7 µM
GI50 (TK-10 renal): 31.1 µM
TGI (TK-10 renal): > 100 µM
GI50 (PC-3 prostate): 22.7 µM
TGI (PC-3 prostate): 66.8 µM
GI50 (T-47D breast): 2.26 µM
TGI (T-47D breast): 26.6 µM

O=C(CCBr)N1CCN(C(=O)CCBr)CC1
GI50 (MALME-3M melanoma): 98.8 µM
GI50 (A498 renal): 70.1 µM
GI50 (NCI-H23 lung): 34.7 µM
GI50 (A549 NSCLC): 57.6 µM
GI50 (SF-268 CNS): 13.7 µM
GI50 (MOLT-4 leukemia): 1.61 µM
TGI (MOLT-4 leukemia): 3 µM
GI50 (CAKI-1 renal): 33.3 µM
GI50 (DU-145 prostate): 21.6 µM
GI50 (MCF7 breast): 30.9 µM
GI50 (NCI/ADR-RES ovarian): 52.2 µM
GI50 (SF-295 CNS): 21.8 µM
TGI (SF-295 CNS): 64.9 µM
GI50 (RXF 393 renal): 44.4 µM
GI50 (RPMI-8226 leukemia): 17 µM
GI50 (UACC-62 melanoma): 15.1 µM
GI50 (CCRF-CEM leukemia): 11.4 µM
TGI (CCRF-CEM leukemia): 24.2 µM
GI50 (NCI-H226 lung): 56.3 µM
GI50 (HS 578T breast): 22.5 µM
GI50 (UO-31 renal): 74.1 µM
GI50 (SK-OV-3 ovarian): 45.2 µM
GI50 (OVCAR-8 ovarian): 37.2 µM
GI50 (NCI-H522 lung): 32.7 µM
GI50 (HCT-15 colon): 40.8 µM
GI50 ([…]-0 renal): 33.1 µM
GI50 (SN12C renal): 18.3 µM
GI50 (LOX IMVI melanoma): 39.9 µM
GI50 (HCT-116 colon): 26.5 µM
GI50 (M14 melanoma): 25.8 µM
GI50 (SW-620 colon): 87.6 µM
GI50 (BT-549 breast): 40 µM
GI50 (HOP-62 NSCLC): 13.6 µM
TGI (HOP-62 NSCLC): 42.3 µM
GI50 (SNB-19 CNS): 63 µM
GI50 (KM12 colon): 88.1 µM
GI50 (SNB-75 CNS): 20.9 µM
GI50 (ACHN renal): 24.6 µM
TGI (ACHN renal): 87.4 µM
GI50 (MDA-MB-468 breast): 9.42 µM
TGI (MDA-MB-468 breast): 49 µM
GI50 (OVCAR-3 ovarian): 41.5 µM
GI50 (HL-60(TB) leukemia): 2.06 µM
TGI (HL-60(TB) leukemia): 5.92 µM
GI50 (U251 glioblastoma): 24 µM
GI50 (HT29 colon): 91.5 µM
GI50 (SF-539 CNS): 24 µM
TGI (SF-539 CNS): 99 µM
GI50 (PC-3 prostate): 82 µM
